# Tested on: PSA
# Assay: Screening SSIA by homogeneous PSA immunoassay (anti-PSA-AK1 + anti-PSA-HRP)
# Format: biochemical, human
# Settings: not given
# Method: This example presents one method used for testing of candidate compounds for functionality as SSIA in assays of the present disclosure. Testing was conducted in a model screening immunoassay of the protein PSA. Tests were run using a 96-well microtiter plate format. A solution containing 30 μL of mouse anti-PSA-AK1 (66 ng), 30 μL of mouse anti-PSA-HRP conjugate (7.8 ng), 36 μL of human female serum, and 24 μL of PSA calibrator were pipetted into each well. The plate was incubated at 37° C. for 10 minutes. A 5 μL aliquot of the test compound (various concentrations) was added to each well. Chemiluminescence was triggered by the addition of 100 μL of a solution of a trigger solution whose composition is listed below. The chemiluminescent flash was integrated for 5 seconds after the addition of the trigger solution using a Luminoskan Asent® plate luminometer, (Thermo Fischer Scientific, Inc., Waltham, Mass.).
# It is desirable that the improvement factor be at least 2 (S5/S0≧ about 20-30) and more desirable that improvement factor be at least 5 (S5/S0≧ about 50), yet more desirable that S5/S0 be ≧100 in the present screen.
row,SMILES,S5/S0
1,c1ccc2c(c1)Cc1ccccc1N2,120

# Same assay, conditions: test compound final conc. 15 uM
row,SMILES,S5/S0
1,O=S([O-])[O-].[Na+].[Na+] [Na2SO3],59

# Same assay, conditions: test compound final conc. 0.030 mM
row,SMILES,S5/S0
1,Nc1ccc(O)cc1O,161

# Same assay, conditions: test compound final conc. 0.031 mM
row,SMILES,S5/S0
1,O=C1C(O)=C(Cl)C(=O)C(O)=C1Cl,7

# Same assay, conditions: test compound final conc. 34 uM
row,SMILES,S5/S0
1,[N-]=[N+]=[N-].[Na+] [NaN3],19

# Same assay, conditions: test compound final conc. 0.061 mM (61 uM)
row,SMILES,S5/S0
1,NNC(=O)c1ccccc1O,23
2,O=C1C(O)=C(O)C(=O)C(O)=C1O,51
3,Cc1cc(-c2cc(C)c(N)c(C)c2)cc(C)c1N [TMB],20

# Same assay, conditions: test compound final conc. 72 uM
row,SMILES,S5/S0
1,O[C@@H](CS)[C@@H](O)CS [DTT],20

# Same assay, conditions: test compound final conc. 0.244 mM (244 uM)
row,SMILES,S5/S0
1,OB(O)c1cc(Cl)ccc1O,22
2,O=C1C=C(O)C(=O)C=C1O,14
3,Oc1ccc(Cl)cc1O [drawing 108],409
4,O=S(=O)([O-])CCCN1c2ccccc2Sc2ccccc21.[Na+],50
5,O=S(=O)([O-])CCCN1c2ccccc2Cc2ccccc21.[Na+],15
6,Nc1cc(Cl)ccc1O,205
7,O=S(=O)([O-])CCCOCCCN1c2ccccc2Cc2ccccc21.[Na+],6
8,Nc1cccc(Cl)c1O,300
9,Nc1cc2ccccc2cc1O,67
10,Nc1cc(C[C@H](N)C(=O)O)ccc1O,448
11,NN [NH2NH2],15

# Same assay, conditions: test compound final conc. 1.25 mM
row,SMILES,S5/S0
1,CC1=C(O)C(=O)C(C)O1 (stereo not drawn),237

# Same assay, conditions: test compound final conc. 24.4 mM
row,SMILES,S5/S0
1,Nc1ncc[nH]1,14

# Same assay, conditions: test compound final conc. 36.7 mM
row,SMILES,S5/S0
1,Cn1ccnc1S,102

# Same assay, conditions: test compound final conc. […] ([…]); S5 = 129 ng PSA/mL vs zero PSA
row,SMILES,S5/S0
1,O=C1O[C@H]([C@@H](O)CO)C([O-])=C1O.[Na+],9.2
2,O=C1O[C@H]([C@@H](O)CO)C(=O)C1=O,26
3,N[C@@H](CS)C(=O)O [L-Cysteine],22
4,COC1=C(O)C(=O)O[C@@H]1[C@@H](O)CO,16
5,O=C(O)C1c2ccccc2Oc2ccccc21,7
6,COc1cc(C(C)(C)C)c(O)c(C(C)(C)C)c1,19
7,Cc1ccc(O)c(O)c1,142
8,COc1ccccc1O,13
9,O=C(O)c1cc(O)c(O)c(O)c1,135
10,O=c1c(O)c(-c2ccccc2)oc2ccccc12,13
11,O=c1c(O)c(-c2ccccc2)oc2ccc(O)cc12,9
12,Nc1ncccc1O,32
13,O=C(O)c1ccc(O)c(O)c1,178
14,Nc1c(O)cc(S(=O)(=O)O)c2ccccc12,65
15,O=C(c1ccccc1)C1c2ccccc2Nc2ccccc21,9
16,Nc1ccccc1B(O)O,108
17,O=c1c2ccccc2[nH]c2ccccc12,14
18,c1ccc2c(c1)Nc1ccccc1O2 [drawing 87],605
19,COc1ccccc1N,7
20,Nc1ccccc1O [drawing 97],649

row,SMILES,S5/S0
1,CC1(C)OC(=O)C(O)=C1O,467
2,O=C(O)c1cc(O)c2ccccc2n1,6
3,Oc1ccc([C@@H]2Oc3cc(O)c(O)cc3C[C@@H]2O)cc1O,323
4,c1ccc2c(c1)Cc1ccccc1S2,9
5,"O=C1O[C@H]([C@@H](O)CO)C([O-])=C1O.[Na+] [ascorbate sodium salt (ascorbate anion), ascorbate sodium salt]",495
6,O=C(O)/C(O)=C(/O)C(=O)O,30
7,Nc1c(O)ccc2ccccc12,63
8,Oc1cccnc1O,41
9,Cc1cc(CO)c(O)c(CO)c1,23
10,O=C1O[C@H]([C@H](O)CO)C(O)=C1O,10.3
11,c1ccc2c(c1)Cc1ccccc1O2,4
12,Nc1ccccc1S,234
13,O=C(O)/C=C/c1ccc(O)c(O)c1,116
14,O=C(O)c1cccc(O)c1O,22
15,O=C1O[C@H]([C@@H](O)CO)C(O)=C1O [drawing 128],10.3
16,O=C1O[C@H]([C@@H](O)CO)C(O)=C1O [drawing 89],423
17,Oc1ccc(O)c(Br)c1,570
18,O=c1ccc2cc(O)c(O)cc2o1,105
19,N[C@@H](CCC(=O)N[C@@H](CS)C(=O)NCC(=O)O)C(=O)O [Glutathione],77

# Tested on: biotinylated HRP
# Assay: Model system for selection of SSIA (AK1/streptavidin BSA microparticles + biotinylated HRP)
# Format: biochemical, horseradish
# Settings: Btn-HRP 0 ng/mL, total HRP 500 ng/mL; SSIA 100 μM final
# Method: The model system uses a microparticle conjugated to BSA (bovine serum albumin) labeled with a […] and acridan ketenedithioacetal chemiluminescent label (AK1) as the chemiluminescent-labeled sbp, and biotinylated HRP as the activator-labeled specific binding pair. In the model system, varying amounts of Btn-HRP is added to the chemiluminescent-labeled specific binding pair at 0, 1, 10, 100 and 250 ng/mL. Additional unlabeled HRP is added to reach a total HRP of concentration of 500 ng/mL in each reaction mixture. The unlabeled HRP in combination with the activator-labeled sbp was provided to the chemiluminescent-labeled sbp microparticles to emulate sample. A compound for assessment as an SSIA was also added. This reaction mixture of the model system is then triggered by addition of trigger solution in a manner of assays of the present disclosure.
# To prepare the chemiluminescent-labeled sbp on microparticles, Bovine Serum Albumin (BSA) was biotinylated with 4× molar excess of biotin-LC-sulfoNHS (Pierce Biotechnology Inc., Rockford, Ill., USA). Unbound reactants were removed via desalting or dialysis. The biotin-BSA was then reacted with a 5× molar excess of an NHS ester of acridan ketenedithioacetal AK1 in 20 mM sodium phosphate pH 7.2: DMSO 75:25, v/v) followed by desalting in the same buffer. The dual labeled (biotin and AK1) BSA was then coupled with tosyl activated M280 microparticles (Invitrogen Corporation, Carlsbad, Calif., USA) in a 0.1M borate buffer pH 9.5 at a concentration of about 20 μg of labeled BSA per mg of microparticles for 16-24 h at 40° C. After coupling the microparticles were stripped for 1 h at 40° C. with 0.2 M TRIS base, 2% SDS, pH˜11. The stripping process was repeated one additional time. Microparticles were then suspended in a 0.1% BSA/TRIS buffered saline (BSA/TBS) buffer and streptavidin (SA) was added at approximately 15 μg SA per mg microparticles. Streptavidin was mixed with the microparticles for 45-50 min at room temperature. The microparticles were then washed three times and suspended in the same BSA/TBS.
# HRP, (Roche Diagnostics, Indianapolis, Ind., USA) was biotinylated with 4× molar excess of biotin-LC-sulfoNHS (Pierce Biotechnology Inc., Rockford, Ill., USA). Alternatively, 25× molar excess of biotin-PEO4-NHS may be used. Unbound reactants were removed via desalting or dialysis.
# Each SSIA compound for assessment was solubilized in Buffer II at a concentration at least 10× of the working strength concentration.
# 25 μl of 1 mg/ml of dual-labeled (biotin and AK1) BSA M280 particles were mixed with 45 μl of working concentration SSIA in Buffer II. The assay volume brought to 85 μl by adding 15 μl of Buffer II. 15 μl of sample containing Btn-HRP:HRP at different ratios (The amount of biotinylated-HRP varied from 0, 1, 10, 100 and 250 ng/mL) was added. The reaction mixture was incubated for 30 min at 37° C., then 100 μL of trigger solution was added and the light intensity recorded. Total volume of reaction mixture, including trigger solution was 200 μL with a final concentration of 100 μM of SSIA.
# The screening tests were performed using a modified DxI® Immunoassay System (Beckman Coulter, Inc. Brea, Calif.) as described above.
row,SMILES,"light intensity, BTN-HRP0"
1,N[C@@H](CCC(=O)N[C@@H](CS)C(=O)NCC(=O)O)C(=O)O [Glutathione],"26,977"

# Same assay, conditions: Btn-HRP 1 ng/mL vs 0; SSIA 100 μM final
row,SMILES,S1/S0
1,N[C@@H](CCC(=O)N[C@@H](CS)C(=O)NCC(=O)O)C(=O)O [Glutathione],2.1

# Same assay, conditions: Btn-HRP 1 ng/mL, total HRP 500 ng/mL; SSIA 100 μM final
row,SMILES,"light intensity, BTN-HRP1"
1,N[C@@H](CCC(=O)N[C@@H](CS)C(=O)NCC(=O)O)C(=O)O [Glutathione],"55,719"

# Same assay, conditions: Btn-HRP 10 ng/mL vs 0; SSIA 100 μM final
row,SMILES,S2/S0
1,N[C@@H](CCC(=O)N[C@@H](CS)C(=O)NCC(=O)O)C(=O)O [Glutathione],92

# Same assay, conditions: Btn-HRP 10 ng/mL, total HRP 500 ng/mL; SSIA 100 μM final
row,SMILES,"light intensity, BTN-HRP10"
1,N[C@@H](CCC(=O)N[C@@H](CS)C(=O)NCC(=O)O)C(=O)O [Glutathione],"2,480,764"

# Same assay, conditions: Btn-HRP 100 ng/mL vs 0; SSIA 100 μM final
row,SMILES,S3/S0
1,N[C@@H](CCC(=O)N[C@@H](CS)C(=O)NCC(=O)O)C(=O)O [Glutathione],323.7

# Same assay, conditions: Btn-HRP 100 ng/mL, total HRP 500 ng/mL; SSIA 100 μM final
row,SMILES,"light intensity, BTN-HRP100"
1,N[C@@H](CCC(=O)N[C@@H](CS)C(=O)NCC(=O)O)C(=O)O [Glutathione],"8,733,068"

# Same assay, conditions: Btn-HRP 250 ng/mL vs 0; SSIA 100 μM final
row,SMILES,S4/S0
1,N[C@@H](CCC(=O)N[C@@H](CS)C(=O)NCC(=O)O)C(=O)O [Glutathione],369.4

# Same assay, conditions: Btn-HRP 250 ng/mL, total HRP 500 ng/mL; SSIA 100 μM final
row,SMILES,"light intensity, BTN-HRP250"
1,N[C@@H](CCC(=O)N[C@@H](CS)C(=O)NCC(=O)O)C(=O)O [Glutathione],"9,965,235"

# Same assay, conditions: SSIA 100 μM final
row,SMILES,effectiveness as SSIA in the model system
1,N[C@@H](CCC(=O)N[C@@H](CS)C(=O)NCC(=O)O)C(=O)O [Glutathione],insuffient effectiveness

# Source: patent US9029092B2, “Solution phase homogeneous assays” (Beckman Coulter, Inc., priority 2009, dated 2015)
